This is an account of results in patent US8426437B2, “Pyrroloquinoline derivatives and their use as protein kinases inhibitors” (Pierre Fabre Medicament, priority 2005, dated 2013).

As a reminder, the IC50 is the midpoint of a concentration-inhibition curve.

Bounds are passed on as bounds.

In the assay the target is T1, RET (Homo sapiens, UniProt P07949).
T1 construct: purchased Upstate 14-570MG
T1 sequence (P07949 29-1114): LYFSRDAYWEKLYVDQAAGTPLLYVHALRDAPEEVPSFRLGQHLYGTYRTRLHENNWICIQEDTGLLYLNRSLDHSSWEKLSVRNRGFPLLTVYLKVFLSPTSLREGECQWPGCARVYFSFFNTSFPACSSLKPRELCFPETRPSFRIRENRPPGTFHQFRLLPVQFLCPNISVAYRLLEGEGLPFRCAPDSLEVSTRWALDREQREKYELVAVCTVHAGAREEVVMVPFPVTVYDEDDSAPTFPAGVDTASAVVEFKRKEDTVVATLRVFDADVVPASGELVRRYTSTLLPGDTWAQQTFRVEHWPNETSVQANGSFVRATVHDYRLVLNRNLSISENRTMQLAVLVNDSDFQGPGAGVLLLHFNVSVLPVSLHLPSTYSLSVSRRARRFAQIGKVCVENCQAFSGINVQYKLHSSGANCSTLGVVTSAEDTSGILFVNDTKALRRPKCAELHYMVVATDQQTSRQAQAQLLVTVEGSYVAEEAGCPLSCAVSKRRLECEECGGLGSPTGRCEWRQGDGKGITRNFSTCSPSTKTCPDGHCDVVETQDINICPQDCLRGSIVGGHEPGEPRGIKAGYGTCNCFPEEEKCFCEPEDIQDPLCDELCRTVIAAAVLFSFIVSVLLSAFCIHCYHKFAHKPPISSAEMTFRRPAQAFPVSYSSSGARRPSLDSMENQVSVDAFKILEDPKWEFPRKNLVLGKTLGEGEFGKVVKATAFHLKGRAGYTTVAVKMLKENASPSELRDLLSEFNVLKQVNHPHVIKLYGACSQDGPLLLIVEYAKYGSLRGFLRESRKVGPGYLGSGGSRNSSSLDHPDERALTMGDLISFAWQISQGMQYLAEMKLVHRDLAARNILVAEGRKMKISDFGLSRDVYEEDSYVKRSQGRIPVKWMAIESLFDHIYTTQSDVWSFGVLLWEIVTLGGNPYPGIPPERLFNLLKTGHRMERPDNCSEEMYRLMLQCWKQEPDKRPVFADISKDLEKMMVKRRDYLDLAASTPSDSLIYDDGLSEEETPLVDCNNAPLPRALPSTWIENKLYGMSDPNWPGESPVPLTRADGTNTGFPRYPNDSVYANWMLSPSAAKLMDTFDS
In words: Inhibition of RET kinase activity, recombinant RET method (Kinase-Glo). The conditions noted are these: RET 2 μg/ml, poly-EY4 substrate, 20 μM ATP, two hours at 30° C. The assay is classed as biochemical. On the procedure: The inhibition of the kinase activity of the compounds of the invention is assessed by measuring their IC50 on RET.
where: • Y is the value of the luminescence • X is the logarithm of the concentration of the compound • Bottom is the minimum Y value • Top is the maximum Y value • LogIC50 is the value of X when Y is 50% from Top—Bottom.
The quantity of RET required is 2 μg/ml.
The following buffer is used for dilution of RET: 20 mM MOPS/NaOH pH7.0, 1 mM EDTA, 5% glycerol, 0.01% Brij35 (Sigma B4184), 0.1% 2-mercaptoethanol, 1 mg/ml BSA (Sigma A3059-10G).
The dilution of the compounds of the invention is distributed so as to obtain a scale of final concentrations between 10 nM and 30 μM.
After incubation of the reaction mixture for two hours at 30° C., the level of ATP that remains is assayed using the Kinase-Glo Luminescent Kinase Assay (Promega #V6712) according to the conditions recommended by the supplier. The luminescence induced is read in a plate reader (Envision-Perkin Elmer).
With `CCOC(=O)c1c[nH]c2c(=O)[nH]c3ccc(-c4ccno4)cc3c12` [Compound 281, 8-Isoxazol-5-yl-4-oxo-4,5-dihydro-3H-pyrrolo[2,3-c]quinoline-1-ethyl carboxylate], the IC50 lay within 0.1 to 1 µM.
The figure for `CCOC(=O)c1c[nH]c2c(=O)[nH]c3ccc(C(C)=O)cc3c12` [Compound 101, 8-Acetyl-4-oxo-4,5-dihydro-3H-pyrrolo[2,3-c]quinoline-1-ethyl carboxylate] is 1 to 10 µM; for `CCCOC(=O)c1c[nH]c2c(=O)[nH]c3ccc(S(=O)(=O)N4CCC(N(C)C(=O)OC(C)(C)C)C4)cc3c12` (centres unmarked) [Compound 169, 8-[3-(tert-Butoxycarbonyl-methyl-amino)-pyrrolidine-1-sulfonyl]-4-oxo-4,5-dihydro-3H-pyrrolo[2,3-c]quinoline-1-propyl carboxylate] it is 1 to 10 µM.
The figure for `CCOC(=O)c1c[nH]c2c(=O)[nH]c3ccc(-c4ccnc(N5CCN(c6ccccn6)CC5)n4)cc3c12` [Compound 265, 4-Oxo-8-[2-(4-pyridin-2-yl-piperazin-1-yl)-pyrimidin-4-yl]-4,5-dihydro-3H-pyrrolo[2,3-c]quinoline-1-ethyl carboxylate] is 1 to 10 µM; for `CCOC(=O)c1c[nH]c2c(=O)[nH]c3ccc(NS(=O)(=O)c4ccc(C)cc4)cc3c12` [Compound 47, 4-Oxo-8-(4-toluenesulfonylamino)-4,5-dihydro-3H-pyrrolo[2,3-c]quinoline-1-ethyl carboxylate] it is 0.1 to 1 µM; for `CCOC(=O)c1c[nH]c2c(=O)[nH]c3cc(OC)c(OC)cc3c12` [Compound 72, 7,8-Dimethoxy-4-oxo-4,5-dihydro-3H-pyrrolo[2,3-c]quinoline-1-ethyl carboxylate] it is 1 to 10 µM.
Consider `CCOC(=O)c1c[nH]c2c(=O)[nH]c3ccc(-c4ccccc4N)cc3c12` [Compound 231, 8-(2-Aminophenyl)-4-oxo-4,5-dihydro-3H-pyrrolo[2,3-c]quinoline-1-ethyl carboxylate], for which the IC50 is 0.1 to 1 µM.
The figure for `CCOC(=O)c1c[nH]c2c(=O)[nH]c3ccc(S(=O)(=O)Nc4ccc(OC)cc4)cc3c12` [Compound 9, 8-(4-Methoxy-phenylsulfamoyl)-4-oxo-4,5-dihydro-3H-pyrrolo[2,3-c]quinoline-1-ethyl carboxylate] is 0.1 to 1 µM; for `CCOC(=O)c1c[nH]c2c(=O)[nH]c3ccc(S(=O)(=O)Nc4ccc(N)cc4)cc3c12` [Compound 20, 8-(4-Aminophenylsulfamoyl)-4-oxo-4,5-dihydro-3H-pyrrolo[2,3-c]quinoline-1-ethyl carboxylate] it is under 0.1 µM; for `CCOC(=O)c1c[nH]c2c(=O)[nH]c3ccc(S(=O)(=O)Cc4ccncc4)cc3c12` [Compound 195, 4-Oxo-8-(pyridin-4-ylmethanesulfonyl)-4,5-dihydro-3H-pyrrolo[2,3-c]quinoline-1-ethyl carboxylate] it is 0.1 to 1 µM.
The result for `CCOC(=O)c1c[nH]c2c(=O)[nH]c3ccc(S(=O)(=O)Cc4ccccn4)cc3c12` [Compound 196, 4-Oxo-8-(pyridin-2-ylmethanesulfonyl)-4,5-dihydro-3H-pyrrolo[2,3-c]quinoline-1-ethyl carboxylate] reads 0.1 to 1 µM; that for `CCOC(=O)c1c[nH]c2c(=O)[nH]c3ccc(S(=O)(=O)N4CCc5ccccc54)cc3c12` [Compound 21, 8-(2,3-Dihydro-indole-1-sulfonyl)-4-oxo-4,5-dihydro-3H-pyrrolo[2,3-c]quinoline-1-ethyl carboxylate], 0.1 to 1 µM.
The figure for `CCOC(=O)c1c[nH]c2c(=O)[nH]c3ccc(-c4ccc5[nH]ccc5c4)cc3c12` [Compound 252, 8-(1H-Indol-5-yl)-4-oxo-4,5-dihydro-3H-pyrrolo[2,3-c]quinoline-1-ethyl carboxylate] is 0.1 to 1 µM; for `CCCOC(=O)c1c[nH]c2c(=O)[nH]c3ccc(S(=O)(=O)N(C[C@H]4CCCN4C)C4CC4)cc3c12` [Compound 146, (R)-8-[Cyclopropyl-(1-methyl-pyrrolidin-2-ylmethyl)-sulfamoyl]-4-oxo-4,5-dihydro-3H-pyrrolo[2,3-c]quinoline-1-propyl carboxylate] it is 0.1 to 1 µM.
For the compound `CCOC(=O)c1c[nH]c2c(=O)[nH]c3ccc(/C=C/C(=O)NCc4ccccc4)cc3c12` [Compound 68, 8-(2-Benzylcarbamoyl-vinyl)-4-oxo-4,5-dihydro-3H-pyrrolo[2,3-c]quinoline-1-ethyl carboxylate], the IC50 lay in the range of 1 to 10 µM.
For `CCOC(=O)c1c[nH]c2c(=O)[nH]c3ccc(-c4csc(Nc5ccccc5Cl)n4)cc3c12` [Compound 272, 8-[2-(2-Chlorophenylamino)-thiazol-4-yl]-4-oxo-4,5-dihydro-3H-pyrrolo[2,3-c]quinoline-1-ethyl carboxylate], the IC50 was 1 to 10 µM.
Regarding `CCCOC(=O)c1c[nH]c2c(=O)[nH]c3ccc(I)cc3c12` [Compound 210, 8-Iodo-4-oxo-4,5-dihydro-3H-pyrrolo[2,3-c]quinoline-1-propyl carboxylate], the IC50 is 0.1 to 1 µM.
With `CCOC(=O)c1c[nH]c2c(=O)[nH]c3ccc(S(=O)(=O)Nc4cccc(Cl)c4)cc3c12` [Compound 10, 8-(3-Chlorophenylsulfamoyl)-4-oxo-4,5-dihydro-3H-pyrrolo[2,3-c]quinoline-1-ethyl carboxylate], the IC50 is 0.1 to 1 µM.
On to `CCCOC(=O)c1c[nH]c2c(=O)[nH]c3ccc(S(=O)(=O)N(C)CC(=O)OC(C)(C)C)cc3c12` [Compound 183, 8-(tert-Butoxycarbonylmethyl-methyl-sulfamoyl)-4-oxo-4,5-dihydro-3H-pyrrolo[2,3-c]quinoline-1-propyl carboxylate], for which the IC50 fell in the range of 1 to 10 µM.
Regarding `CCOC(=O)c1c[nH]c2c(=O)[nH]c3ccc(S(=O)(=O)NC4CCCCCC4)cc3c12` [Compound 31, 8-Cycloheptylsulfamoyl-4-oxo-4,5-dihydro-3H-pyrrolo[2,3-c]quinoline-1-ethyl carboxylate], the IC50 fell in the range of 0.1 to 1 µM.
The result for `CCCOC(=O)c1c[nH]c2c(=O)[nH]c3ccc(S(=O)(=O)N(C)CCN(C)C(=O)OC(C)(C)C)cc3c12` [Compound 140, 8-{[2-(tert-Butoxycarbonyl-methyl-amino)-ethyl]-methyl-sulfamoyl}-4-oxo-4,5-dihydro-3H-pyrrolo[2,3-c]quinoline-1-propyl carboxylate] reads 1 to 10 µM.
`O=C(O)c1c[nH]c2c(=O)[nH]c3ccccc3c12` [Compound 75, 4-oxo-4,5-dihydro-3H-pyrrolo[2,3-c]quinoline-1-carboxylic acid]: the IC50 fell in the range of 10 to 100 µM.
Consider `COC(=O)c1c[nH]c2c(=O)[nH]c3ccc(S(=O)(=O)NN4CCCCC4)cc3c12` [Compound 191, 4-Oxo-8-(piperidin-1-ylsulfamoyl)-4,5-dihydro-3H-pyrrolo[2,3-c]quinoline-1-methyl carboxylate], for which the IC50 is 1 to 10 µM.
The result for `CCOC(=O)c1c[nH]c2c(=O)[nH]c3ccc(NS(=O)(=O)c4cccc(Cl)c4)cc3c12` [Compound 41, 8-(3-Chloro-benzenesulfonylamino)-4-oxo-4,5-dihydro-3H-pyrrolo[2,3-c]quinoline-1-ethyl carboxylate] reads 0.1 to 1 µM.
Take `CCOC(=O)c1c[nH]c2c(=O)[nH]c3ccc(NS(=O)(=O)c4ccc(NC(C)=O)cc4)cc3c12` [Compound 52, 8-(4-Acetylamino-benzenesulfonylamino)-4-oxo-4,5-dihydro-3H-pyrrolo[2,3-c]quinoline-1-ethyl carboxylate]: the IC50 fell in the range of 1 to 10 µM.
Consider `CCOC(=O)c1c[nH]c2c(=O)[nH]c3ccc(-c4csc(CSc5ccccc5)n4)cc3c12` [Compound 276, 4-Oxo-8-(2-phenylsulfanylmethyl-thiazol-4-yl)-4,5-dihydro-3H-pyrrolo[2,3-c]quinoline-1-ethyl carboxylate], for which the IC50 was 0.1 to 1 µM.
Consider `CCOC(=O)c1c[nH]c2c(=O)[nH]c3ccc(NC(C)=O)cc3c12` [Compound 61, 8-Acetylamino-4-oxo-4,5-dihydro-3H-pyrrolo[2,3-c]quinoline-1 ethyl carboxylate], for which the half-inhibitory concentration (IC50) was 1 to 10 µM.
With `CCOC(=O)c1c[nH]c2c(=O)[nH]c3ccc(NS(=O)(=O)c4cccc(C)c4)cc3c12` [Compound 48, 4-Oxo-8-(3-toluenesulfonylamino)-4,5-dihydro-3H-pyrrolo[2,3-c]quinoline-1-ethyl carboxylate], the IC50 was in the range of 10 to 100 µM.
With `CCOC(=O)c1c[nH]c2c(=O)[nH]c3ccc(S(=O)(=O)N4CCOCC4)cc3c12` [Compound 28, 8-(Morpholine-4-sulfonyl)-4-oxo-4,5-dihydro-3H-pyrrolo[2,3-c]quinoline-1-ethyl carboxylate], the IC50 lay in the range of 0.1 to 1 µM.
With `CCOC(=O)c1c[nH]c2c(=O)[nH]c3ccc(S(=O)(=O)NC4CCCCC4)cc3c12` [Compound 30, 8-Cyclohexylsulfamoyl-4-oxo-4,5-dihydro-3H-pyrrolo[2,3-c]quinoline-1-ethyl carboxylate], the IC50 was in the range of 0.1 to 1 µM.
Take `CCOC(=O)c1c[nH]c2c(=O)[nH]c3ccc(-c4csc(NC(=O)C5CC5)n4)cc3c12` [Compound 275, 8-[2-(Cyclopropanecarbonyl-amino)-thiazol-4-yl]-4-oxo-4,5-dihydro-3H-pyrrolo[2,3-c]quinoline-1-ethyl carboxylate]: the IC50 fell in the range of 0.1 to 1 µM.
For the compound `O=C(NCC1CCCCC1)c1c[nH]c2c(=O)[nH]c3ccccc3c12` [Compound 82, N-(Cyclohexylmethyl)-4-oxo-4,5-dihydro-3H-pyrrolo[2,3-c]quinoline-1-carboxamide], the IC50 fell in the range of 10 to 100 µM.
